# Data: patent US20250160332A1, “HERBICIDAL COMBINATIONS AND A METHOD FOR CONTROLLING UNDESIRED VEGETATION” (UPL MAURITIUS LIMITED, priority 2022, published 2025)
# Columns and labels:
# Amaranthus hybridus = experiment: Post-emergence herbicidal activity, efficacy on Amaranthus hybridus (Colby method); assay type: in vivo
# Description: (§1) The following products were used for evaluating the weed control efficacy of present herbicidal combinations.
# (§2) Methodology: Trials were carried out to evaluate the efficacy of the combinations comprising L-glufosinate ammonium and additional herbicides on Amaranthus genus weeds.
# (§3) The soil used was sandy clay loam-sand: 68.0%; silt: 8.0%; clay: 24.0%.
# (§4) All treatments were in 3 replications per treatment with a spray volume of 150 L/ha.
# (§5) Efficacy Evaluation: The expected efficacy of the combination comprising L-glufosinate ammonium and additional herbicides was calculated using the well-established Colby method.
# In the Colby method, the expected (or predicted) response of a combination of herbicides is calculated by taking the product of the observed response for each individual component of the combination when applied alone, divided by 100, and subtracting this value from the sum of the observed response for each component when applied alone. An unexpected enhancement in efficacy of the combination is then determined by comparing the observed response of the combination to the expected (or predicted) response as calculated from the observed response of each individual component alone. If the observed response of the combination is greater than the expected (or predicted) response, or stated conversely, if the difference between the observed and expected response is greater than zero, then the combination is said to be synergistic or unexpectedly effective (Colby, S. R., Weeds, 1967(15), p. 20-22). The Colby method requires only a single dose of each herbicide applied alone and the mixture of both doses. The formula used to calculate the expected efficacy (EE) which was compared with the observed efficacy (OE) to determine the efficacy of the present disclosure is explained herein:
# The expected efficacy for a combination of two active ingredients is as follows:
# The expected efficacy for a combination of three active ingredients is as follows:
# [formula] • wherein, • A=Observed efficacy of active ingredient A at the same concentration as used in the mixture. • B=Observed efficacy of the active ingredient B at the same concentration as used in the mixture. • C=Observed efficacy of the active ingredient C at the same concentration as used in the mixture.
# Experiment was conducted to assess the efficacy of herbicidal combination comprising L-glufosinate ammonium (glufosinate-P-ammonium) and saflufenacil to control the weed, Amaranthus hybridus.
# The percentage efficacy was calculated after 3 days of applications (DAA). The target weed was Amaranthus hybridus, and the concentration of the herbicide and the results are recorded in Table 7.
# Experiment was conducted to assess the efficacy of herbicidal combination comprising L-glufosinate ammonium, saflufenacil and triclopyr to control the weed Amaranthus hybridus.
# The percentage efficacy was calculated after 3 DAA. The target weed was Amaranthus hybridus, and the concentration of the herbicide and the results are recorded in Table 8.
# Experiment was conducted to assess the efficacy of herbicidal combination comprising L-glufosinate ammonium, saflufenacil and 2,4-D Choline to control the weed, Amaranthus hybridus.
# The percentage efficacy was calculated after 3 DAA. The target weed was Amaranthus hybridus, and the concentration of the herbicide and the results are recorded in Table 9.
# Experiment was conducted to assess the efficacy of herbicidal combination comprising L-glufosinate ammonium and quizalofop-ethyl to control the weed, Amaranthus hybridus.
# The percentage efficacy was calculated after 3 DAA and 14 DAA. The target weed was Amaranthus hybridus, and the concentration of the herbicide and the results are recorded in Table 10.
# Experiment was conducted to assess the efficacy of herbicidal combination comprising L-glufosinate ammonium and quizalofop-p-tefuryl to control the weed, Amaranthus hybridus
# The percentage efficacy was calculated after 3 DAA and 14 DAA.
# Amaranthus viridis = experiment: Post-emergence herbicidal activity, efficacy on Amaranthus viridis (Colby method); assay type: in vivo
# Description: as §1, §2, §3, §4, §5
# In the Colby method, the expected (or predicted) response of a combination of herbicides is calculated by taking the product of the observed response for each individual component of the combination when applied alone, divided by 100, and subtracting this value from the sum of the observed response for each component when applied alone. An unexpected enhancement in efficacy of the combination is then determined by comparing the observed response of the combination to the expected (or predicted) response as calculated from the observed response of each individual component alone. […]
# The percentage efficacy was calculated after 3 DAA and 7 DAA. The target weed was Amaranthus viridis, and the concentration of the herbicide and the results are recorded in Table 12. […]
compound,measurement,setting,value
"C[N+](C)(C)CCO.O=C([O-])COc1ccc(Cl)cc1Cl [2,4-D Choline]","Observed efficacy (%) of 2,4-D Choline (228 g a.i./ha)","Amaranthus hybridus; Table 9, 3 DAA, 228 g a.i./ha",95%
"CCOC(=O)C(C)Oc1ccc(Oc2cnc3cc(Cl)ccc3n2)cc1 (centres unmarked) [quizalofop-ethyl, Quizalofop-ethyl]",Observed efficacy (%) of quizalofop-ethyl (25 g a.i./ha),"Amaranthus hybridus; Table 10, 3 DAA",0%
same,Observed efficacy (%) of quizalofop-ethyl (25 g a.i./ha),"Amaranthus hybridus; Table 10, 14 DAA",0%
CC(C)N(C)S(=O)(=O)NC(=O)c1cc(-n2c(=O)cc(C(F)(F)F)n(C)c2=O)c(F)cc1Cl [Saflufenacil],Observed efficacy (%) of Saflufenacil (30 g a.i./ha),"Amaranthus hybridus; Table 7, 3 DAA",50%
same,Observed efficacy (%) of Saflufenacil (30 g a.i./ha),"Amaranthus hybridus; Table 8, 3 DAA",50%
same,Observed efficacy (%) of Saflufenacil (30 g a.i./ha),"Amaranthus hybridus; Table 9, 3 DAA",50%
CS(=O)(=O)c1ccc(C(=O)C2C(=O)CCCC2=O)c([N+](=O)[O-])c1 [Mesotrione],Observed efficacy (%) of Mesotrione (100 g a.i./ha),"Amaranthus viridis; Table 12, 3 DAA",10%
same,Observed efficacy (%) of Mesotrione (100 g a.i./ha),"Amaranthus viridis; Table 12, 7 DAA",30%
O=C(O)COc1nc(Cl)c(Cl)cc1Cl [Triclopyr],Observed efficacy (%) of Triclopyr (228 g a.i./ha),"Amaranthus hybridus; Table 8, 3 DAA, 228 g a.i./ha",95%
"C[C@@H](Oc1ccc(Oc2cnc3cc(Cl)ccc3n2)cc1)C(=O)OCC1CCCO1 (some centres unmarked) [quizalofop-p-tefuryl, Quizalofop-p-tefuryl]",Observed efficacy (%) of quizalofop-p-tefuryl (25 g a.i./ha),"Amaranthus hybridus; Table 11, 3 DAA",0%
same,Observed efficacy (%) of quizalofop-p-tefuryl (25 g a.i./ha),"Amaranthus hybridus; Table 11, 14 DAA",0%
